Reference: US20240115649A1, “CASPASE INHIBITION TO ENHANCE REGENERATION AND REPAIR AFTER SKIN OR GUT INJURY AND TO TREAT BACTERIAL OR VIRAL INFECTIONS” (The Johns Hopkins University, priority 2020, published 2024)
Where a SMILES comes first, the peptide text is derived from it. The star is where a group is joined. Cbz = O=C(OCc1ccccc1)*; CH2F = FC*

Experiments:
BMDMs = test: BMDM cultures with live S. aureus ± caspase inhibitors; settings: live S. aureus 6 hours, Q-VD-OPH 10 μg/mL, Emricasan 9 μg/mL
mouse neutrophils = test: Neutrophil cultures with live S. aureus ± caspase inhibitors; settings: live S. aureus 6 hours, Q-VD-OPH 10 μg/mL, Emricasan 9 μg/mL
[1] = tested on: mouse epithelial keratinocytes; test: Mouse epithelial keratinocyte culture (qRT-PCR, immunoblot); settings: for IL-36α protein (whole-cell lysates): mouse epithelial keratinocytes
human keratinocytes = test: Human keratinocyte culture (qRT-PCR, immunostaining)
Method: Human and Mouse Keratinocyte Isolation and Culture.
Quantitative real-time PCR (qRT-PCR).
Immunofluorescence, immunocytochemistry, and immunohistochemistry. […] After washing and permeabilization in TBS-T universal buffer (0.2% Triton X-100 in tris-buffered saline), sections were blocked at room-temperature in 5% goat, donkey or fetal bovine serum with 1% bovine serum albumin. […] Following subsequent washing, sections were incubated in fluorescent-dye conjugated secondary antibodies diluted in antibody diluent for 1 hour at room temperature. After final washing, sections were mounted with […] ® Hardset™ Antifade Mounting Medium with DAPI (Vector Laboratories, H-1500) for nuclear staining. Human keratinocytes were prepared similarly, with the exception of antigen retrieval. All slides were imaged using either the DFC365FX (Leica) or Eclipse E-800 (Nikon) at 10×, 20×, and 40× magnifications.

neogenic hair follicles = test: Wound Induced Hair Neogenesis (WIHN) assay; assay type: in vivo, mice
Method: Wound Induced Hair Neogenesis (WIHN) Assay. All in vivo experimental surgical procedures were performed as previously characterized ^1,2,6-8. In short, after exposure to vaporizing anesthesia (Baxter, Isoflurane) the dorsal side of male and female 3-week-old (21 days) mice were shaved at approximately 8-10 g of weight. Using surgical scissors, approximately 1.26 cm^2×1.25 cm^2 of skin was excised creating wounds deep into the fascia. At 3 days post-wounding, a single dose (50 μl) of 100 μg/mL high molecular weight (HMW) polyinosinic-polycytidylic acid (Poly (I:C)) (Invivogen, tlrl-pic) was administered underneath the scab site via injection in both wild-type and transgenic mice as previously described^2,8. For functional experiments characterizing IL-36 on WIHN, a single dose (50 μl) of 1 μg/mL recombinant mouse IL-36α protein (R&D Systems, 7059-ML/CF) was injected underneath the scab site at 7 days post-wounding. For rescue experiments using the small molecule, broad spectrum pan-caspase inhibitor, 20 ul of 5 mg/mL Q-VD-OPh (in DMSO) was diluted 130 μL of phosphate-buffered saline (PBS) (1.33 mM final concentration) and injected intraperitoneally in mice 24 hours prior to wounding and approximately 10 days after wounding (scab detachment).
Immunofluorescence, immunocytochemistry, and immunohistochemistry.

[2] = no significant differences vs no treatment
[3] = RNase L siRNA transfected human keratinocytes, 10 μg/ml

Molecule: C[C@H](NC(=O)C(=O)Nc1ccccc1C(C)(C)C)C(=O)N[C@@H](CC(=O)O)C(=O)COc1c(F)c(F)cc(F)c1F [Emricasan]
- percentages of TNF+ BMDMs (BMDMs): 33.53%
- viable cells (Zombie UV negative cells) (BMDMs; [2]): ~80%
- percentages of TNF+ neutrophils (mouse neutrophils): 25.47%
- viable cells (Zombie UV negative cells) (mouse neutrophils; [2]): ~50%
- IL-36α protein (whole-cell lysates) [1]: increased

Molecule: CC(C)(O)c1coc(S(=O)(=O)NC(=O)Nc2c3c(cc4c2CCC4)CCC3)c1 [MCC950]
- regeneration (morphogenesis) markers (human keratinocytes; MCC950 100 μM, further increased by exogenous dsRNA addition): greater regeneration markers than controls

Molecule: COC(=O)CC[C@H](NC(=O)[C@H](Cc1c[nH]c2ccccc12)NC(=O)OCc1ccccc1)C(=O)N[C@@H](Cc1cnc[nH]1)C(=O)N[C@@H](CC(=O)OC)C(=O)CF [Z-WEHD-FMK] (Cbz-WE(OMe)HD(OMe)-CH2F)
- IL-36 receptor (IL36r) expression ([1]; 48 hrs treatment): not affected
- IL-36 receptor antagonist (IL-36m) protein or mRNA levels ([1]; 48 hrs treatment): not affected
- Tlr3 expression ([1]; 48 hrs treatment): elevated
- caspase gene mRNA (inflammatory caspases 1 and 4) ([1]; 48 hrs treatment): elevated
- IL-36α protein (whole-cell lysates) [1]: increased

Molecule: polyinosinic-polycytidylic acid [poly (I:C)]
- differentiation markers (human keratinocytes; [3]): inhibits differentiation markers
- morphogenesis markers (human keratinocytes; [3]): induces multiple morphogenesis markers
- Il36α and Casp1 levels ([1]; after siRNA-mediated RNase L loss, poly (I:C) 10 μg/ml, 48 hrs): boosted
- WIHN (hair follicle regeneration) (neogenic hair follicles; Il36r^−/− mice): not responsive
- WIHN (neogenic hair follicles; Rnasel^−/− mice, poly (I:C) under the scab 3 days post-wounding): intact super-increase

B1: recombinant IL-36α: recombinant IL-36α used to treat human keratinocytes (protein, UniProt Q9UHA7 6-158, looked up)
Interleukin-36 alpha: KIDTPQQGSIQDINHRVWVLQDQTLIAVPRKDRMSPVTIALISCRHVETLEKDRGNPIYLGLNGLNLCLMCAKVGDQPTLQLKEKDIMDLYNQPEPVKSFLFYHSQSGRNSTFESVAFPGWFIAVSSEGGCPLILTQELGKANTTDFGLTMLF
- WNT7B mRNA expression (human keratinocytes; qRT-PCR): promotes WNT7B expression

B2: rmIL-36a: recombinant mouse IL-36α protein (R&D Systems, 7059-ML/CF) (protein, UniProt Q9JLA2 8-160, looked up)
Interleukin-36 alpha: RAASPSLRHVQDLSSRVWILQNNILTAVPRKEQTVPVTITLLPCQYLDTLETNRGDPTYMGVQRPMSCLFCTKDGEQPVLQLGEGNIMEMYNKKEPVKASLFYHKKSGTTSTFESAAFPGWFIAVCSKGSCPLILTQELGEIFITDFEMIVVH
- increase in the number of neogenic hair follicles (neogenic hair follicles; 50 μl of 1 μg/mL injected underneath the scab at 7 days post-wounding, vs vehicle-treated controls): > 2 fold
